Data taken from patent publication US9271984B2, “Treatment of type 1 diabetes” (POXEL, priority 2010, dated 2016).

Test system: rat pancreatic islets
Assay: Protective effect on beta cell death: quantification of cytoplasmic nucleosomes (apoptosis, Cell Death Detection ELISA) in cultured rat islets with or without cytokine cocktail
Type: cell-based
Protocol: Male Wistar rat islets (Elevage Janvier, Le Genest-St-Isle, France) were isolated using collagenase (Serva, Heidelberg, Germany) and cultured in RPMI at 11 mM glucose (Invitrogen, CA, USA) supplemented with 10% FCS (Fetal Calf Serum), 100 Units/ml penicillin, 100 μg/ml streptomycin and 100 μg/ml gentamycin in low-attachment 24-well plates (Corning, NY, USA). These islets were incubated with a cocktail of rat cytokines (TNF-alpha, IL-1beta and INF-gamma each at 2 ng/ml) for 24 hours (Brun T. et al., 2004 and 2007). […] Aliquots of the medium were used to measure insulin accumulated during the culture period using immune enzyme assay kits (Brunchwig, Basel, Switzerland). Furthermore, quantification of cytoplasmic nucleosomes, a direct indicator of apoptosis, was performed with the Cell Death Detection ELISA kit (Roche, Basel, Switzerland). Each condition was tested with 50 rat islets in duplicate and four independent experiments were performed. The results are provided as mean+/−sem and statistical analyses were performed using one-way ANOVA with Bonferroni and Dunnett post-hoc tests.
The conditions without cytokines allowed the analysis of the specific effect of the compound on islets while the combination of the drug with cytokines allowed the study of the effect of Imeglimin on islets under an inflammatory stress. To measure cell death in islets, quantification of cytoplasmic nucleosomes in islet cells, a consequence of DNA fragmentation during apoptosis (Robertson et al., 2000), was performed. […] Furthermore, a negative control and a positive control were added to the conditions with and without cytokines to test the effectiveness of the protocol. […] The results of the quantification of cell death for each condition are presented on FIG. 1.

[1] = with cytokines (TNF-alpha, IL-1beta, INF-gamma each 2 ng/ml, 24 hours), 100 μM

| Compound | protective properties against apoptosis on cultured rat islets (basal and inflammation-like apoptosis) | protection of islets from the cytokine stress (both doses (100 μM and 1 mM), cytokine cocktail 24 hours) | less apoptosis than cytokine-stressed islets [1] [%] | less apoptosis than untreated islets [1] [%] | less apoptosis than cytokine-stressed islets (with cytokines, 1 mM) [%] | less apoptosis than untreated islets (with cytokines, 1 mM) [%] | potency relative to Exendin-4 (more potent) (with cytokines, lower concentration tested (100 μM) vs Exe-4 10 nM) [%] | level of protection relative to the Exendin-4 level (without cytokines, 100 μM vs Exe-4 10 nM) | less apoptosis than untreated islets (without cytokines, 100 μM, 24 hours culture) [%] | drop in apoptosis vs cytokine-stressed islets (with cytokines, Exe-4 10 nM) [%] | drop in apoptosis vs untreated islets (with cytokines, Exe-4 10 nM) [%] | decrease in cell death (without cytokines, Exe-4 10 nM, vs untreated islets) [%] |
| --- | --- | --- | --- | --- | --- | --- | --- | --- | --- | --- | --- | --- |
| CC1N=C(N)NC(N(C)C)=N1.Cl (single isomer, unassigned; (+)) [(+)-2-amino-3,6-dihydro-4-dimethylamino-6-methyl-1,3,5-triazine hydrochloride] | protective properties against basal and inflammation-like apoptosis | completely protected | 37 | 29 | 25 | 16 | ~50 | two thirds | 10 |  |  |  |
| Exendin-4 [reference compound] |  |  |  |  |  |  |  |  |  | 29 | 20 | 16 |
